From patent US12617777B2, “GPR84 antagonists and uses thereof” (Liminal BioSciences Limited, priority 2021, dated 2026)

Biological target: T1, human GPR84 receptor (Homo sapiens, UniProt Q9NQS5)
T1 construct: host or cells: HEK293, transient transfection
Test: Gαi biosensor BRET assay in HEK293 cells (antagonism of ZQ-16)
Format: cell-based
Conditions: for inhibition at 10 µM: HEK293, single concentration 10 μM (designated F); for IC50: HEK293 cells, antagonism of 200 nmol/L ZQ-16; for inhibition at 2 µM: HEK293, single concentration 2 μM (designated A); for inhibition at 25 µM: HEK293, single concentration 25 μM (designated I)
Outline: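 Antagonist mode: test compound 5 min at 37° C, followed by ZQ-16 agonist (200 nmol/L, 5 min, room temperature), in HEK293 cells transfected with GPR84 plus Rluc8-tagged Gαi2, GFP10-Gγ2 and Gβ1. Readout as GFP10/Rluc8 emission ratio after 5 μmol/L coelenterazine 400A, net of Rluc8-only and vehicle signal.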

T1 sequence (Q9NQS5 whole entry): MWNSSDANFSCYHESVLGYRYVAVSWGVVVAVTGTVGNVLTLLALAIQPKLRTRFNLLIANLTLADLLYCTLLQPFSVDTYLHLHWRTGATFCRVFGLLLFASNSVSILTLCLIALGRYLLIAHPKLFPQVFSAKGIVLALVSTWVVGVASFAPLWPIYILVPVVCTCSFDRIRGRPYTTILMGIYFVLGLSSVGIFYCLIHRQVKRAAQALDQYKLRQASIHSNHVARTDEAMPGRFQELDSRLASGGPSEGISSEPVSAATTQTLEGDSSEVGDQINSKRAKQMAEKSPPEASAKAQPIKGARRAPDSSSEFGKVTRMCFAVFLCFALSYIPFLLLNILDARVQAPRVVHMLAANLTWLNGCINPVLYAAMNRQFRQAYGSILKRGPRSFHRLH

Row | inhibition at 10 µM | SMILES | further results
1 | 25 to 50% | Cc1cc(C#CC2CC2)ccc1-c1cn(C[C@H]2CC[C@@H](C)O2)nn1 [Compound I-225] | –
2 | > 75% | Cc1cc(C#CC2CC2)ccc1-c1cn(CC2CC(C)(C)CO2)nn1 (stereo not drawn) [Compound I-226] | IC50: 1000 to 3000 nM
3 | ≤ 25% | CC(C)(O)c1cc(C#CC2CC2)ccc1-c1cn(CC2CCCCO2)nn1 (stereo not drawn) [Compound I-229] | –
4 | ≤ 25% | Cn1ccc2c(C#CC3CC3)ccc(-c3cn(CC4CCCCO4)nn3)c21 (stereo not drawn) [Compound I-230] | –
5 | 50 to 75% | COC(=O)C1CCCN1CC#Cc1ccc(-c2cn(CC3CCCCO3)nn2)c(C)c1 (stereo not drawn) [Compound I-233] | –
6 | ≤ 25% | NC(=O)c1cc(C#CC2CC2)ccc1-c1cn(CC2CCCCO2)nn1 (stereo not drawn) [Compound I-234] | –
7 | 25 to 50% | Cc1c(-c2ccc(C#CCNc3ccccc3)cc2)nnn1CC1CCCCO1 (stereo not drawn) [Compound I-235] | –
8 | 50 to 75% | Cc1cc(N2CCN(C(=O)c3ccccc3)CC2)ccc1-c1cn(CC2CCCCO2)nn1 (stereo not drawn) [Compound I-236] | IC50: 1000 to 3000 nM
9 | > 75% | Cc1cc(N2CCN(Cc3ccccn3)CC2)ccc1-c1cn(CC2CCCCO2)nn1 (stereo not drawn) [Compound I-237] | IC50: 1000 to 3000 nM
10 | ≤ 25% | C(#CC1CC1)c1csc(-c2cn(CC3CCCCO3)nn2)n1 (stereo not drawn) [Compound I-241] | –
11 | ≤ 25% | C(#CC1CC1)c1csc(-c2cn(CC3CCCCO3)nn2)c1 (stereo not drawn) [Compound I-242] | –
12 | 25 to 50% | Cc1c(-c2ccc(C#CCO)cc2)nnn1CC1CCCCO1 (stereo not drawn) [Compound I-243] | –
13 | 25 to 50% | COCC#Cc1ccc(-c2nnn(CC3CCCCO3)c2C)cc1 (stereo not drawn) [Compound I-244] | –
14 | ≤ 25% | Cc1cc(C#CCN2CCCC2C(=O)O)ccc1-c1cn(CC2CCCCO2)nn1 (stereo not drawn) [Compound I-247] | –
15 | ≤ 25% | Cc1cc(C#CC2CC2)ccc1-c1cn(CC2CCCCS2(=O)=O)nn1 (stereo not drawn) [Compound I-248] | –
16 | 50 to 75% | Cc1cc(F)c(C#CC2CC2)cc1-c1cn(CC2CCCCO2)nn1 (stereo not drawn) [Compound I-249] | –
17 | 50 to 75% | Cc1cc(C#CCN2CCC(F)(F)CC2)cnc1-c1cn(CC2CCCCO2)nn1 (stereo not drawn) [Compound I-250] | –
18 | > 75% | Cc1cc(C#CCN(C)CC2CC2)cnc1-c1cn(CC2CCCCO2)nn1 (stereo not drawn) [Compound I-251] | –
19 | 25 to 50% | Cc1cc(C#CC2CC2)cnc1-c1cn(CC2CCC(C)(C)O2)nn1 (stereo not drawn) [Compound I-252] | –
20 | – | Cc1cc(N2CC(C)(C)C2)ccc1-c1cn(C[C@H]2CCCCO2)nn1 [Compound I-253] | inhibition at 3.3 µM (HEK293, single concentration 3.3 μM (designated C)): > 75%; IC50: ≤ 300 nM
21 | 25 to 50% | CC1(C)CN(c2ccc(-c3cn(CC4CCCCO4)nn3)c(Cl)c2)C1 (stereo not drawn) [Compound I-254] | –
22 | 25 to 50% | CC1(C)CN(c2ccc(-c3cn(CC4CCCCO4)nn3)c(C(F)(F)F)c2)C1 (stereo not drawn) [Compound I-255] | –
23 | ≤ 25% | Cc1cc(N2CCCCC2)ccc1-c1cn(CC2CCCCO2)nn1 (stereo not drawn) [Compound I-256] | –
24 | ≤ 25% | COc1cc(C)c(-c2cn(CC3CCCCO3)nn2)cc1OC (stereo not drawn) [Compound I-257] | –
25 | 50 to 75% | Cc1cc(C#CC2CC2)ccc1-c1cn(CC2CCCCS2)nn1 (stereo not drawn) [Compound I-258] | –
26 | 50 to 75% | CCc1cc(N2CC(C)(C)C2)cnc1-c1cn(CC2CCCCO2)nn1 (stereo not drawn) [Compound I-260] | –
27 | 50 to 75% | Cc1cc(C#CC2CC2)ccc1-c1cn(Cc2ncccn2)nn1 [Compound I-262] | –

Row | inhibition at 10 µM | SMILES | further results
28 | > 75% | Cc1cc(N2CC(C)(CO)C2)ccc1-c1cn(CC2CCCCO2)nn1 (stereo not drawn) [Compound I-263] | –
29 | 50 to 75% | Cc1cc(N2CC(C)C2)ccc1-c1cn(CC2CCCCO2)nn1 (stereo not drawn) [Compound I-264] | –
30 | 25 to 50% | CC(=O)NC(C)(C)COc1ccc(-c2cn(CC3CCCCO3)nn2)c(C)c1 (stereo not drawn) [Compound I-265] | –
31 | 25 to 50% | Cc1cc(C#CCNC(C)(C)C)ccc1-c1cn(CC2CCCCO2)nn1 (stereo not drawn) [Compound I-267] | –
32 | ≤ 25% | CN1Cc2c(C#CC3CC3)ccc(-c3cn(CC4CCCCO4)nn3)c2C1 (stereo not drawn) [Compound I-268] | –
33 | ≤ 25% | Cc1cc(C#CC2CC2)ccc1-n1cc(CC2CCOCC2)nn1 [Compound I-269] | –
34 | ≤ 25% | Cc1cc(CCCCN2CCCCC2)ccc1-c1cn(CC2CCCCO2)nn1 (stereo not drawn) [Compound I-270] | –
35 | – | CC(C)Oc1cc(N2CC(C)(C)C2)ccc1-c1cn(CC2CCCCO2)nn1 (stereo not drawn) [Compound I-271] | inhibition at 2 µM: > 75%
36 | 50 to 75% | Cc1cc(C#CCO)cnc1-c1cn(C[C@H]2CCCCO2)nn1 [Compound I-272] | –
37 | 50 to 75% | COCC#Cc1cnc(-c2cn(CC3CCCCO3)nn2)c(C)c1 (stereo not drawn) [Compound I-273] | –
38 | 50 to 75% | CCc1cc(C#CC2CC2)cnc1-c1cn(CC2CCOCC2)nn1 [Compound I-274] | –
39 | > 75% | CCc1cc(C#CCN2CCC(F)(F)CC2)cnc1-c1cn(CC2CCCCO2)nn1 (stereo not drawn) [Compound I-275] | –
40 | > 75% | CCc1cc(C#CCN(C)CC2CC2)cnc1-c1cn(CC2CCCCO2)nn1 (stereo not drawn) [Compound I-276] | –
41 | > 75% | CCc1cc(C#CCN2CC(C)(C)C2)cnc1-c1cn(C[C@H]2CCCCO2)nn1 [Compound I-277] | –
42 | > 75% | COc1cc(N2CC(C)(C)C2)ccc1-c1cn(CC2CCCCO2)nn1 (stereo not drawn) [Compound I-279] | –
43 | > 75% | CC1(C)CN(c2ccc(-c3cn(CC4CCCCO4)nn3)c(OCCO)c2)C1 (stereo not drawn) [Compound I-280] | –
44 | > 75% | Cc1cc(C#CCN2CC(C)(C)C2)cnc1-c1cn(C[C@H]2CCCCO2)nn1 [Compound I-284] | –
45 | > 75% | CCn1c(C#CC2CC2)cnc1-c1cn(CC2CCCCO2)nn1 (stereo not drawn) [Compound I-285] | –
46 | ≤ 25% | Cc1cc(OCC(C)(C)N)ccc1-c1cn(CC2CCCCO2)nn1 (stereo not drawn) [Compound I-287] | –
47 | 25 to 50% | CNC(C)(C)COc1ccc(-c2cn(CC3CCCCO3)nn2)c(C)c1 (stereo not drawn) [Compound I-288] | –
48 | 25 to 50% | Cc1cc(OCC(C)(C)N(C)C)ccc1-c1cn(C[C@H]2CCCCO2)nn1 [Compound I-289] | –
49 | 25 to 50% | CC(=O)N(C)C(C)(C)COc1ccc(-c2cn(CC3CCCCO3)nn2)c(C)c1 (stereo not drawn) [Compound I-290] | –
50 | – | Cc1ccc(C#CC2CC2)cc1-c1cn(Cc2ncccn2)nn1 [Compound I-293] | inhibition at 2 µM: > 75%
51 | – | C(#CC1CC1)c1ccc(-n2cc(CC3CCOCC3)nn2)cc1 [Compound I-294] | inhibition at 25 µM: ≤ 25%
52 | – | C(#CC1CC1)c1ccc(-n2cc(CC3CCCO3)nn2)cc1 (stereo not drawn) [Compound I-295] | inhibition at 25 µM: ≤ 25%
53 | – | Cc1cc(C#CC2CC2)ccc1-n1cc(CN2CCCCC2)nn1 [Compound I-296] | inhibition at 25 µM: ≤ 25%
54 | – | Cc1cc(C#CC2CC2)ccc1-n1cc(CN2CCOCC2)nn1 [Compound I-297] | inhibition at 25 µM: ≤ 25%

Row | inhibition at 10 µM | SMILES | further results
55 | 25 to 50% | C(#CC1CC1)c1ccc(Cc2cn(CC3CCCCO3)nn2)cc1 (stereo not drawn) [Compound I-298] | –
56 | – | Cc1ccc(C#CC2CC2)cc1Cc1cn(CC2CCCCO2)nn1 (stereo not drawn) [Compound I-299] | IC50: > 3000 nM
57 | 25 to 50% | Cc1cc(C#CC2CC2)ccc1Cc1cn(CC2CCCCO2)nn1 (stereo not drawn) [Compound I-300] | –
58 | 50 to 75% | C(#CC1CC1)c1cccc(Cc2cn(CC3CCCCO3)nn2)c1 (stereo not drawn) [Compound I-301] | –
59 | > 75% | CC(c1cccc(C#CC2CC2)c1)c1cn(CC2CCCCO2)nn1 (stereo not drawn) [Compound I-302] | –
60 | ≤ 25% | C(#CC1CC1)c1ccc2c(c1)CCc1c-2nnn1CC1CCCCO1 (stereo not drawn) [Compound I-303, 7-(cyclopropylethynyl)-3-((tetrahydro-2H-pyran-2-yl)methyl)-4,5-dihydro-3H-naphtho[1,2-d][1,2,3]triazole] | –
61 | ≤ 25% | C(#CC1CC1)c1ccc2c(c1)CCc1nnn(CC3CCCCO3)c1-2 (stereo not drawn) [Compound I-305] | –
62 | 25 to 50% | Cc1cc(C#CCNc2ccccc2)ccc1-c1cn(CCC2CCCCO2)nn1 (stereo not drawn) [Compound I-306] | –
63 | ≤ 25% | O=C(O)c1cc(C#CC2CC2)ccc1-c1cn(CC2CCCCO2)nn1 (stereo not drawn) [Compound I-309] | –
64 | 50 to 75% | Cc1cc(N2CC3(CCN(C(=O)c4ccccc4)CC3)C2)ccc1-c1cn(CC2CCCCO2)nn1 (stereo not drawn) [Compound I-310] | IC50: 1000 to 3000 nM
65 | 50 to 75% | Cc1cc(N2CC3(CCN(Cc4ccccn4)CC3)C2)ccc1-c1cn(CC2CCCCO2)nn1 (stereo not drawn) [Compound I-311] | –
66 | 25 to 50% | Cc1cc(C#CC2CC2)ccc1-c1cn(Cc2ccccn2)nn1 [Compound I-312] | –
67 | 50 to 75% | CC(c1ccc(C#CC2CC2)cc1)c1cn(CC2CCCCO2)nn1 (stereo not drawn) [Compound I-313] | –
68 | 25 to 50% | Cc1cc(C#CC2CC2)ccc1-c1cn(Cc2nccs2)nn1 [Compound I-314] | –
69 | – | Cc1cn(CC2CCCCO2)nc1-c1ccc(C#CC2CC2)cc1 (stereo not drawn) [Compound I-316] | inhibition at 25 µM: ≤ 25%
70 | – | C(#CC1CC1)c1ccc(-c2cnn(CC3CCCCO3)c2)cc1 (stereo not drawn) [Compound I-317] | inhibition at 25 µM: ≤ 25%
71 | – | Cc1nn(CC2CCCCO2)cc1-c1ccc(C#CC2CC2)cc1 (stereo not drawn) [Compound I-319] | inhibition at 25 µM: ≤ 25%
72 | – | C(#CC1CC1)c1cccc(-c2cnn(CC3CCCCO3)c2)c1 (stereo not drawn) [Compound I-320] | inhibition at 25 µM: ≤ 25%
73 | – | C(#CC1CC1)c1ccc(-c2ccn(CC3CCCCO3)n2)cc1 (stereo not drawn) [Compound I-321] | inhibition at 25 µM: 25 to 50%
74 | – | Cc1c(-c2cccc(C#CC3CC3)c2)cnn1CC1CCCCO1 (stereo not drawn) [Compound I-322] | inhibition at 25 µM: ≤ 25%
75 | – | Cc1nn(CC2CCCCO2)cc1-c1cccc(C#CC2CC2)c1 (stereo not drawn) [Compound I-323] | inhibition at 25 µM: ≤ 25%
76 | – | Cc1cc(C#CC2CC2)ccc1-c1cnn(CC2CCCCO2)c1 (stereo not drawn) [Compound I-324] | inhibition at 25 µM: ≤ 25%
77 | ≤ 25% | Cc1cc(C#CC2CC2)ccc1-c1ccn(CC2CCCCO2)n1 (stereo not drawn) [Compound I-325] | –
78 | ≤ 25% | Cc1cc(C#CC2CC2)ccc1-c1cn(CC2CCCCO2)nc1C (stereo not drawn) [Compound I-326] | –
79 | ≤ 25% | Cc1cc(C#CC2CC2)ccc1-c1cnn(CC2CCCCO2)c1C (stereo not drawn) [Compound I-327] | –
